Measured values taken from patent publication US8063065B2, “Azaindazole compounds as CCR1 receptor antagonists” (Boehringer Ingelheim International GmbH, priority 2008, dated 2011).
pIC50: −log10 of the molar value.

The compounds below were run against T1, CCR1 (Homo sapiens, UniProt P32246) (assay: Method B: calcium flux in CCR1 transfected cells (Calcium 4 dye, […] FDSS6000), block of the CCR1/MIP-1α interaction). Conditions: Method B: Calcium 4 dye, MIP-1alpha at EC80.
T1 sequence (P32246 1-355): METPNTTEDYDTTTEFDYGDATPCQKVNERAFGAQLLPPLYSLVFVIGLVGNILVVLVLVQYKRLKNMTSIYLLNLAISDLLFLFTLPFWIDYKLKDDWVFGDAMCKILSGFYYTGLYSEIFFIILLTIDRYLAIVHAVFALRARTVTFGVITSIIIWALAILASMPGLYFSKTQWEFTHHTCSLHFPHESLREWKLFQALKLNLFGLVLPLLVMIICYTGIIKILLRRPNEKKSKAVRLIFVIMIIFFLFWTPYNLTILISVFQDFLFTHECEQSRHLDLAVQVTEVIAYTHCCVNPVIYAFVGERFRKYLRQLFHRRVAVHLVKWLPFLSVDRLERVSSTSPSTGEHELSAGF
Type: cell-based
Procedure: Compounds are assessed for the ability to block the interaction of CCR1 and MIP-1α in a functional cellular assay measuring calcium flux in CCR1 transfected cells.
Method B: Non-adherent cells purchased from Chemicon Corporation (HTS005C), stably expressing recombinant CCR1 and G-alpha-16 are grown in RPMI 1640 medium (Mediatech 10-080-CM) supplemented with 10% FBS, 0.4 mg/mL Geneticin and penicillin/streptomycin. On the day of the assay, the cells are loaded with Calcium 4 dye (Molecular Devices R7448) with Probenecid (Invitrogen P346400) at 8E5 cells/mL for 1 hour at room temperature. After 1 hour, they are seeded in a 384-well tissue culture-treated plate at a density of 20,000 cells/well. Appropriately diluted test compound is added to the well to achieve a top concentration of 3,000 nM (diluted 4-fold with 10 doses total). The final concentration of DMSO is 1%. The buffer is HBSS (Invitrogen 14025) with 20 mM HEPES at pH 7.4. The cells incubate 30 minutes at 37 C and then 30 minutes at room temperature. The plates are transferred to the […] FDSS6000 where MIP-1alpha in 1% BSA is added at the EC80 final concentration. All plates must be read within 4 hours of the start of dye-loading. Wells+/−MIP-1alpha containing diluted DMSO instead of compound serve as the controls. Data are analyzed using Activity Base software.

pIC50	Compound
10.00	CCC[C@H](NC(=O)c1cncc2c1cnn2-c1ccc(F)cc1)c1ccnc(S(=O)(=O)CC)c1 [1-(4-Fluorophenyl)-1H-pyrazolo[3,4-c]pyridine-4-carboxylic acid [(S)-1-(2-ethanesulfonyl-pyridin-4-yl)-butyl]-amide]
8.40	CC[C@H](NC(=O)c1cncc2c1cnn2-c1ccc(F)cc1)c1ccnc(NC)c1 [1-(4-Fluorophenyl)-1H-pyrazolo[3,4-c]pyridine-4-carboxylic acid [(S)-1-(2-methylamino-pyridin-4-yl)-propyl]-amide]
7.60	CCC(NC(=O)c1cncc2c1cnn2-c1ccc(F)cc1)c1nc(C(=O)NCC(N)=O)c(C)o1 (centres unmarked) [1-(4-Fluorophenyl)-1H-pyrazolo[3,4-c]pyridine-4-carboxylic acid {1-[4-(carbamoylmethyl-carbamoyl)-5-methyl-oxazol-2-yl]-propyl}-amide]
9.52	CC[C@H](NC(=O)c1cncc2c1cnn2-c1ccc(F)cc1)c1cc(NC)nc(S(C)(=O)=O)c1 [1-(4-Fluorophenyl)-1H-pyrazolo[3,4-c]pyridine-4-carboxylic acid [(S)-1-(2-methanesulfonyl-6-methylamino-pyridin-4-yl)-propyl]-amide]
8.15	CC[C@H](NC(=O)c1cncc2c1cnn2-c1ccc(F)cc1)c1ccc(OC)c(Br)c1 [1-(4-Fluorophenyl)-1H-pyrazolo[3,4-c]pyridine-4-carboxylic acid [(S)-1-(3-bromo-4-methoxy-phenyl)-propyl]-amide]
7.80	O=C(NCc1cnc(N2CCOCC2)s1)c1cncc2c1cnn2-c1ccc(F)cc1 [1-(4-Fluorophenyl)-1H-pyrazolo[3,4-c]pyridine-4-carboxylic acid (2-morpholin-4-yl-thiazol-5-ylmethyl)-amide]
8.22	C[C@H](NC(=O)c1cncc2c1cnn2-c1ccc(F)cc1)c1cnc(S(C)(=O)=O)s1 [1-(4-Fluorophenyl)-1H-pyrazolo[3,4-c]pyridine-4-carboxylic acid [(S)-1-(2-methanesulfonyl-thiazol-5-yl)-ethyl]-amide]
8.52	C[C@H](NC(=O)c1cncc2c1cnn2-c1ccc(F)cc1)c1cc(S(C)(=O)=O)[nH]c(=O)c1 [1-(4-Fluorophenyl)-1H-pyrazolo[3,4-c]pyridine-4-carboxylic acid [(S)-1-(6-methanesulfonyl-2-oxo-1,2-dihydropyridin-4-yl)-ethyl]-amide]
7.80	CC[C@@H](NC(=O)c1cncc2c1cnn2-c1ccc(F)cc1)c1cc(S(C)(=O)=O)cn1S(=O)(=O)c1ccc(C)cc1 [1-(4-Fluorophenyl)-1H-pyrazolo[3,4-c]pyridine-4-carboxylic acid {(R)-1-[4-methanesulfonyl-1-(toluene-4-sulfonyl)-1H-pyrrol-2-yl]-propyl}-amide]
9.10	CC[C@H](NC(=O)c1cncc2c1cnn2-c1ccc(F)cc1)c1cc(S(C)(=O)=O)ccn1 [1-(4-Fluorophenyl)-1H-pyrazolo[3,4-c]pyridine-4-carboxylic acid [(S)-1-(4-methanesulfonyl-pyridin-2-yl)-propyl]-amide]
9.40	CCC[C@H](NC(=O)c1cncc2c1cnn2-c1ccc(F)cc1)c1ccc(S(C)(=O)=O)nc1 [1-(4-Fluorophenyl)-1H-pyrazolo[3,4-c]pyridine-4-carboxylic acid [(S)-1-(6-methanesulfonyl-pyridin-3-yl)-butyl]-amide]
7.62	CC(=O)N(C)c1ncc(CNC(=O)c2cncc3c2cnn3-c2ccc(F)cc2)cn1 [1-(4-Fluorophenyl)-1H-pyrazolo[3,4-c]pyridine-4-carboxylic acid [2-(acetyl-methyl-amino)-pyrimidin-5-ylmethyl]-amide]
7.57	CCC(NC(=O)c1cncc2c1cnn2-c1ccc(F)cc1)c1nc(C(=O)OC)c(C)o1 (centres unmarked) [2-(1-{[1-(4-Fluorophenyl)-1H-pyrazolo[3,4-c]pyridine-4-carbonyl]-amino}-propyl)-5-methyl-oxazole-4-carboxylic acid methyl ester]
8.22	CS(=O)(=O)c1cc([C@H](CO)NC(=O)c2cncc3c2cnn3-c2ccc(F)cc2)ccn1 [1-(4-Fluorophenyl)-1H-pyrazolo[3,4-c]pyridine-4-carboxylic acid [(R)-2-hydroxy-1-(2-methanesulfonyl-pyridin-4-yl)-ethyl]-amide]
9.30	CC[C@H](NC(=O)c1cncc2c1cnn2-c1ccc(F)cc1)c1ccnc([S@+](C)[O-])c1 [1-(4-Fluorophenyl)-1H-pyrazolo[3,4-c]pyridine-4-carboxylic acid {(S)-1-[2-((S)-methanesulfinyl)-pyridin-4-yl]-propyl}-amide]
7.54	CS(=O)(=O)c1nc(CNC(=O)c2cncc3c2cnn3-c2ccc(F)cc2)cs1 [1-(4-Fluorophenyl)-1H-pyrazolo[3,4-c]pyridine-4-carboxylic acid (2-methanesulfonyl-thiazol-4-ylmethyl)-amide]
9.00	CC[C@H](NC(=O)c1cncc2c1cnn2-c1ccc(F)cc1)c1cnc(SC)o1 [1-(4-Fluorophenyl)-1H-pyrazolo[3,4-c]pyridine-4-carboxylic acid [(S)-1-(2-methylsulfanyl-oxazol-5-yl)-propyl]-amide]
7.92	CC[C@H](NC(=O)c1cncc2c1cnn2-c1ccc(F)cc1)c1ccnc(C(=O)O)c1 [4-((S)-1-{[1-(4-Fluorophenyl)-1H-pyrazolo[3,4-c]pyridine-4-carbonyl]-amino}-propyl)-pyridine-2-carboxylic acid]
7.59	CCC(NC(=O)c1cncc2c1cnn2-c1ccc(F)cc1)C1CCCN(C(=O)OC(C)(C)C)C1 (centres unmarked) [3-(1-{[1-(4-Fluorophenyl)-1H-pyrazolo[3,4-c]pyridine-4-carbonyl]-amino}-propyl)-piperidine-1-carboxylic acid tert-butyl ester]
9.10	CC[C@H](NC(=O)c1cncc2c1cnn2-c1ccc(F)cc1)c1nc(Br)cs1 [1-(4-Fluorophenyl)-1H-pyrazolo[3,4-c]pyridine-4-carboxylic acid [(S)-1-(4-bromo-thiazol-2-yl)-propyl]-amide]
8.30	CC[C@H](NC(=O)c1cncc2c1cnn2-c1ccc(F)cc1)c1ccnc(N2CCN(C(C)=O)CC2)c1 [1-(4-Fluorophenyl)-1H-pyrazolo[3,4-c]pyridine-4-carboxylic acid {(S)-1-[2-(4-acetyl-piperazin-1-yl)-pyridin-4-yl]-propyl}-amide]
9.22	CC[C@H](NC(=O)c1cncc2c1cnn2-c1ccc(F)cc1)c1ccc(S(C)(=O)=O)c(O)c1 [1-(4-Fluorophenyl)-1H-pyrazolo[3,4-c]pyridine-4-carboxylic acid [(S)-1-(3-hydroxy-4-methanesulfonyl-phenyl)-propyl]-amide]
8.40	CC[C@H](NC(=O)c1cncc2c1cnn2-c1ccc(F)cc1)c1coc(S(C)(=O)=O)n1 [1-(4-Fluorophenyl)-1H-pyrazolo[3,4-c]pyridine-4-carboxylic acid [(S)-1-(2-methanesulfonyl-oxazol-4-yl)-propyl]-amide]
9.52	CC[C@H](NC(=O)c1cncc2c1cnn2-c1ccc(F)cc1)c1ccnc(C#N)c1 [1-(4-Fluorophenyl)-1H-pyrazolo[3,4-c]pyridine-4-carboxylic acid [(S)-1-(2-cyano-pyridin-4-yl)-propyl]-amide]
9.70	CC[C@H](NC(=O)c1cncc2c1cnn2-c1ccc(F)cc1)c1ccnc(SC)c1 [1-(4-Fluorophenyl)-1H-pyrazolo[3,4-c]pyridine-4-carboxylic acid [(S)-1-(2-methylsulfanyl-pyridin-4-yl)-propyl]-amide]
9.52	CC[C@H](NC(=O)c1cncc2c1cnn2-c1ccc(F)cc1)c1cncc(S(N)(=O)=O)c1 [1-(4-Fluorophenyl)-1H-pyrazolo[3,4-c]pyridine-4-carboxylic acid [(S)-1-(5-sulfamoyl-pyridin-3-yl)-propyl]-amide]
9.40	CC[C@H](NC(=O)c1cncc2c1cnn2-c1ccc(F)cc1)c1csc(S(C)(=O)=O)n1 [1-(4-Fluorophenyl)-1H-pyrazolo[3,4-c]pyridine-4-carboxylic acid [(S)-1-(2-methanesulfonyl-thiazol-4-yl)-propyl]-amide]
7.44	CC[C@H](NC(=O)c1cncc2c1cnn2-c1ccc(F)cc1)c1cn[nH]c1 [1-(4-Fluorophenyl)-1H-pyrazolo[3,4-c]pyridine-4-carboxylic acid [(S)-1-(1H-pyrazol-4-yl)-propyl]-amide]
9.52	CC[C@H](NC(=O)c1cncc2c1cnn2-c1ccc(F)cc1)c1cccc(S(N)(=O)=O)n1 [1-(4-Fluorophenyl)-1H-pyrazolo[3,4-c]pyridine-4-carboxylic acid [(S)-1-(6-sulfamoyl-pyridin-2-yl)-propyl]-amide]
